Each block holds one compound with its values, some of them ahead of it. The source made the active and inactive calls. The calls are words filed in the database; no cut-off is given here.
Assays:
Eca-109/VCR [1] = experiment: Cytotoxicity against human Eca-109/VCR cells assessed as reduction in cell viability at 5.0 uM incubated for 48 hrs by CCK-8 assay relative to control; assay type: functional
[2] = Reversal fold, ratio of vincristine IC50 to vincristine IC50 in presence of test compound for reversal of drug resistance in human Eca-109/VCR cells at 5 uM incubated for 48 hrs by CCK-8 assay; assay type: functional
Eca-109/VCR [3] = experiment: Induction of apoptosis in human Eca-109/VCR cells assessed as viable cells at 2.5 uM incubated for 60 hrs by Annexin V-FITC/PI staining based flow cytometric analysis (reference value: 97.4%); assay type: functional; details: read-out: Activity
Eca-109/VCR [4] = experiment: Induction of apoptosis in human Eca-109/VCR cells assessed as early apoptotic cells at 2.5 uM incubated for 60 hrs by Annexin V-FITC/PI staining based flow cytometric analysis (reference value: 1.66%); assay type: functional
Eca-109/VCR [5] = experiment: Reversal of multi-drug resistance in human Eca-109/VCR cells assessed as decrease in cloning formation at 0.5 to 2 uM incubated for 8 days by crystal violet staining based analysis; assay type: functional, cell-based; details: dose 0.5-2 µM, time 8.0 day
Eca-109/VCR [6] = experiment: Reversal of multi-drug resistance in human Eca-109/VCR cells assessed as decrease in cloning formation at 0.5 to 2 uM incubated for 8 days in presence of vincristine by crystal violet staining based analysis; assay type: functional, cell-based; details: dose 0.5-2 µM, time 8.0 day
Eca-109/VCR [7] = experiment: Reversal of multi-drug resistance in human Eca-109/VCR cells assessed as decrease in cloning formation incubated for 8 days in presence of vincristine by crystal violet staining based analysis; assay type: functional, cell-based; details: dose 0.5-2 µM, time 8.0 day
Eca-109/VCR [8] = experiment: Effect on p-gp expression in human Eca-109/VCR cells at 5 to 10 uM incubated for 24 hrs by Western blotting analysis; assay type: functional, cell-based; details: dose 5-10 µM
Eca-109/VCR [9] = experiment: Induction of apoptosis in human Eca-109/VCR cells assessed as late apoptotic cells at 2.5 uM incubated for 60 hrs by Annexin V-FITC/PI staining based flow cytometric analysis (reference value: 0.70%); assay type: functional
Eca-109/VCR [10] = experiment: Induction of apoptosis in human Eca-109/VCR cells assessed as necrotic cells at 2.5 uM incubated for 60 hrs by Annexin V-FITC/PI staining based flow cytometric analysis (reference value: 0.22%); assay type: functional
Eca-109/VCR [11] = experiment: Induction of apoptosis in human Eca-109/VCR cells assessed as viable cells at 5 uM incubated for 60 hrs by Annexin V-FITC/PI staining based flow cytometric analysis (reference value: 97.4%); assay type: functional; details: read-out: Activity
Eca-109/VCR [12] = experiment: Induction of apoptosis in human Eca-109/VCR cells assessed as early apoptotic cells at 5 uM incubated for 60 hrs by Annexin V-FITC/PI staining based flow cytometric analysis (reference value: 1.66%); assay type: functional
Eca-109/VCR [13] = experiment: Induction of apoptosis in human Eca-109/VCR cells assessed as late apoptotic cells at 5 uM incubated for 60 hrs by Annexin V-FITC/PI staining based flow cytometric analysis (reference value: 0.70%); assay type: functional
[14] = Apparent clearance in male Sprague-Dawley rat at 10 mg/kg, po measured after 24 hrs by UPLC-MS/MS analysis; assay type: ADME, organism-based; details: in vivo, read-out: CL(app) (converted)
[15] = Reversal fold, ratio of mitoxantrone IC50 to mitoxantrone IC50 in presence of test compound for reversal of drug resistance in human Eca-109/VCR cells at 5 uM incubated for 48 hrs by CCK-8 assay; assay type: functional
[16] = Reversal fold, ratio of docetaxel IC50 to docetaxel IC50 in presence of test compound for reversal of drug resistance in human Eca-109/VCR cells at 5 uM incubated for 48 hrs by CCK-8 assay; assay type: functional
[17] = Reversal fold, ratio of doxorubicin IC50 to doxorubicin IC50 in presence of test compound for reversal of drug resistance in human Eca-109/VCR cells at 5 uM incubated for 48 hrs by CCK-8 assay; assay type: functional
[18] = Reversal fold, ratio of lapatinib IC50 to lapatinib IC50 in presence of test compound for reversal of drug resistance in human Eca-109/VCR cells at 5 uM incubated for 48 hrs by CCK-8 assay; assay type: functional
[19] = Reversal fold, ratio of colchicine IC50 to colchicine IC50 in presence of test compound for reversal of drug resistance in human Eca-109/VCR cells at 5 uM incubated for 48 hrs by CCK-8 assay; assay type: functional
Eca-109/VCR [20] = experiment: Induction of apoptosis in human Eca-109/VCR cells assessed as viable cells at 2.5 uM incubated for 60 hrs in presence of vincristine by Annexin V-FITC/PI staining based flow cytometric analysis (reference value: 97.3%); assay type: functional; details: read-out: Activity
Eca-109/VCR [21] = experiment: Induction of apoptosis in human Eca-109/VCR cells assessed as viable cells at 5 uM incubated for 60 hrs in presence of vincristine by Annexin V-FITC/PI staining based flow cytometric analysis (reference value: 97.3%); assay type: functional; details: read-out: Activity
Eca-109/VCR [22] = experiment: Induction of apoptosis in human Eca-109/VCR cells assessed as late apoptotic cells at 2.5 uM incubated for 60 hrs in presence of vincristine by Annexin V-FITC/PI staining based flow cytometric analysis (reference value: 0.56%); assay type: functional
Eca-109/VCR [23] = experiment: Induction of apoptosis in human Eca-109/VCR cells assessed as late apoptotic cells at 5 uM incubated for 60 hrs in presence of vincristine by Annexin V-FITC/PI staining based flow cytometric analysis (reference value: 0.56%); assay type: functional
Eca-109/VCR [24] = experiment: Induction of apoptosis in human Eca-109/VCR cells assessed as necrotic cells at 2.5 uM incubated for 60 hrs in presence of vincristine by Annexin V-FITC/PI staining based flow cytometric analysis (reference value: 0.10%); assay type: functional
Eca-109/VCR [25] = experiment: Induction of apoptosis in human Eca-109/VCR cells assessed as necrotic cells at 5 uM incubated for 60 hrs in presence of vincristine by Annexin V-FITC/PI staining based flow cytometric analysis (reference value: 0.10%); assay type: functional
Eca-109/VCR [26] = experiment: Cytotoxicity against human Eca-109/VCR cells assessed as reduction in cell viability incubated for 48 hrs by CCK-8 assay; assay type: functional, cell-based

CL/F [14]: 393 L/h/kg
Compound: COc1cc2c(cc1OC)C(Cc1ccc(OS(=O)(=O)c3ccccc3[N+](=O)[O-])c(OC)c1)N(C)CC2 (configuration not stated)
Cell viability (% of control) (Eca-109/VCR [1]): 99.1% | Ratio IC50 [2]: 467.7 | viability at 2.5 µM (Eca-109/VCR [3]): 96.9% | Activity (Eca-109/VCR [4]): 2.19% | Activity (Eca-109/VCR [5]): inactive | Activity (Eca-109/VCR [6]): Active; Compound Showed Superior Reversal Activity Compared To Oy-101 | Activity (Eca-109/VCR [7]): Dose-dependent-effect | Activity (Eca-109/VCR [8]): Active | Activity (Eca-109/VCR [9]): 0.53% | Activity (Eca-109/VCR [10]): 0.29% | viability at 5 µM (Eca-109/VCR [11]): 97.1% | Activity (Eca-109/VCR [12]): 1.61% | Activity (Eca-109/VCR [13]): 1% | Ratio IC50 [15]: 10 | Ratio IC50 [16]: 149.7 | Ratio IC50 [17]: 29.4 | Ratio IC50 [18]: 1 | Ratio IC50 [19]: 98.2 | viability at 2.5 µM (Eca-109/VCR [20]): 75.4% | viability at 5 µM (Eca-109/VCR [21]): 94.5% | Activity (Eca-109/VCR [22]): 5.47% | Activity (Eca-109/VCR [23]): 9.21% | Activity (Eca-109/VCR [24]): 0.63% | Activity (Eca-109/VCR [25]): 0.7%

Compound: CC[C@]1(O)C[C@H]2CN(CCc3c([nH]c4ccccc34)[C@@](C(=O)OC)(c3cc4c(cc3OC)N(C=O)[C@H]3[C@@](O)(C(=O)OC)[C@H](OC(C)=O)[C@]5(CC)C=CCN6CC[C@]43[C@@H]65)C2)C1 [VINCRISTINE]
Activity (Eca-109/VCR [5]): inactive | IC50 (Eca-109/VCR [26]): 4.15 µM

— ChEMBL document CHEMBL6182888, “Design, synthesis, and biological activity study of 6,7-dimethoxy-1,2,3,4-tetrahydroisoquinoline derivatives against multidrug resistance in Eca109/VCR cells” (Eur J Med Chem, 2025)
